Reference: patent US12514883B2, “Compositions and methods for modulating lipid and steroid metabolism” (The Regents of the University of California, priority 2019, dated 2026)

Key:
T. sanguinis MOL361 [1] = assay: 5-HT levels in culture supernatant of T. sanguinis grown in Schaedler broth; assay type: cell-based, Turicibacter sanguinis; settings: 200 uM fluoxetine, 0-36 hours of growth
Experimental: (§1) Turicibacter sanguinis MOL361 (DSM-14220, DSMZ) was grown in Schaedler's Broth (BD Biosciences) in an anaerobic chamber of 10% carbon dioxide, 5% hydrogen, and balanced nitrogen. Bacteroides thetaiotaomicron (ATCC 29148) was grown in Brain Heart Infusion media (BD Biosciences) supplemented with 5 ug/ml hemin (Frontier Scientific) and 0.5 ug/ml vitamin K1 (Sigma Aldrich) under the same anaerobic conditions. Mouse- and human-derived spore-forming bacterial consortia were isolated by chloroform treatment and propagated in mice.

[2] = system: Turicibacter sanguinis MOL361; assay: T. sanguinis growth curve and viability; assay type: cell-based
Experimental: Scale bars: 10 μm. […] Scale bar denotes 100 um.
Cell density of T. sanguinis at 6, 12, 18, 30, 36, 45 and 48 hours of growth in the presence of 200 uM 5-HT, Flx or both 5-HT and Flx. Treatments were added at the start of culture (e.g. t=0 h).
as §1

T. sanguinis [3] = assay: APP+ uptake assay in T. sanguinis; assay type: cell-based, Turicibacter sanguinis; settings: 200 uM pre-treatment for 30 min
Experimental: (§2) T. sanguinis and B. theta were cultured anaerobically as described above and subcultured for 15-17 h to reach the stationaryphase. Bacterial APP+ transport activity was measured according to the manufacturer's instructions using the Neurotransmitter Transporter Uptake Assay Kit (Molecular Devices). […] Then cells were treated with APP+ for 4 hours at 37° C. Intracellular fluorescence signal was measured at 520 nm using a multimodal plate reader (Biotek Synergy H1). Bacterial suspensions were mounted on slides and imaged using an epifluorescence microscope (EVOS). Images of B. theta were brightened by 90% to resolve fluorescence signal.

T. sanguinis [4] = assay: [3H]NE uptake assay in T. sanguinis; assay type: cell-based, Turicibacter sanguinis; settings: 30 min pre-treatment, 200 uM fluoxetine
Experimental: T. sanguinis or B. theta were cultured anaerobically as described above and subcultured for 15-17 h to reach the stationary phase. […] Cells were then incubated with 1 μM tritiated 5-HT (plus 0-500 μM unlabelled 5-HT for dose-dependent assays), NE or Trp (PerkinElmer). For T. sanguinis, all uptake reactions were performed at room temperature. For B. theta, uptake reactions were performed at either room temperature or 37° C. Uptake reactions were terminated by washing in ice cold Kreb-Ringer's buffer. Washed T. sanguinis was trapped through 0.45 um PVDF filters on MultiScreenHTS plates connected to a vacuum manifold (EMD Millipore). For B. theta, washed cells were either trapped through 0.45-μm PVDF filters or lysed by incubating in TE buffer plus triton and lysozyme. Extracted filters or lysed cells were incubated in 4 ml Filter Count scintillation fluid (Perkin Elmer) for 1 hour at room temp, and radioactivity was measured using a liquid scintillation counter (Beckman LS6500).

T. sanguinis [5] = assay: Bacterial transcriptomic analysis of T. sanguinis; assay type: cell-based, Turicibacter sanguinis
Experimental: T. sanguinis was cultured anaerobically as described above and subcultured to mid-log-phase. […] Bacteria were washed with PBS and lysed in TE buffer containing 1.2% Triton X-100 and 15 mg/ml lysozyme. RNA was extracted using the RNAeasy Mini kit with on-column genomic DNA-digest (Qiagen). cDNA synthesis was performed using the qScript cDNA synthesis kit (Quantabio). RNA quality of RIN>8.0 was confirmed using the 4200 Tapestation system (Agilent). rRNA were removed with the Ribo-Zero Bacterial kit (Illumina), RNA was prepared using the TruSeq Stranded RNA kit (Illumina) and 2×75 bp paired end reads were sequenced using the Illumina HiSeq platform by the UCLA Neuroscience Genomics Core. The bacterial RNAseq analysis package Rockhopper was used for quality filtering, mapping against the T. sanguinis PC909 genome and differential expression analysis. […] Heatmaps containing differentially expressed genes with adjusted p<0.05 and coefficient of variation (standard deviation/mean)<3 were generated using the pheatmap package for R. GO term enrichment analysis of differentially expressed genes with adjusted p<0.05 was conducted using DAVID. Functional protein networks were generated with differentially expressed genes with adjusted p<0.05 using STRING. Bacterial FM 4-64 staining and imaging. […] Cells were washed with PBS, fixed in 4% paraformaldehyde, and stained with FM4-64 (5 μg ml−1) and 4′,6-diamidino-2-phenylindole (DAPI; 0.2 μg ml−1) according to the manufacturer's instructions. Cells were wet-mounted on glass slides and cover slips. Images were acquired at 63× using the Zeiss LSM 780 confocal microscope. Images were analysed using Fiji software51 by a researcher blinded to the experimental group. FM 4-64 puncta were counted manually based on circularity and fluorescence intensity. Counts were normalized to cell area, as determined by thresholding of DAPI staining.

fecal microbiota = assay: Fluoxetine treatment of SPF mice, fecal 16S rDNA sequencing; assay type: in vivo
Experimental: (§3) Bacterial genomic DNA was extracted from mouse fecal samples using the MoBio PowerSoil Kit. The library was generated according to methods adapted from Capraso J. G., et al., PNAS 108 Suppl 1, 4516-4522 (2011). The V4 regions of the 16S rDNA gene were PCR amplified using individually barcoded universal primers and 30 ng of the extracted genomic DNA. The PCR reaction was set up in triplicate, and the PCR product was purified using the Qiaquick PCR purification kit (Qiagen). In total, 250 ng of purified PCR product from each sample was pooled and sequenced by Laragen, Inc. using the Illumina MiSeq platform and 2×250 bp reagent kit for paired-end sequencing. Operational taxonomic units (OTUs) were chosen by open reference OTU picking based on 97% sequence similarity to the Greengenes 13_5 database. Taxonomy assignment and rarefaction were performed using QIIME1.8.0. Metagenomes were inferred from closed reference OTU tables using PICRUSt.
Fecal samples were harvested on day 0, 1, 4, 7 or 14 of treatment as indicated in figure legends and processed for 16S rDNA sequencing as described above.

[6] = Lipid clinical chemistry analysis of serum; assay type: in vivo; settings: antibiotic-treated mice gavaged with T. sanguinis pretreated with 200 μM 5-HT+Flx
Text: Serum samples were collected from SPF, germfree, Turicibacter-monocolonized or Turicibacter-enriched mice and submitted to Charles River Clinical Pathology for analysis of the lipid species, including total cholesterol, free fatty acids, high-density lipoprotein, low-density lipoprotein and total triglycerides.

[7] = Fecal 5-HT levels after 5-HT in drinking water (ELISA); assay type: in vivo, mice
Experimental: (§4) Water was supplemented with 5-HT (Sigma Aldrich) at 1.5 mg/ml provided ad libitum to mice for 2 weeks. The amount of water consumed and mouse weight were measured on days 3, 7, 10 and 14 of treatment. Mice were sacrificed one day after treatment for 5-HT assays and fecal 16S rDNA profiling was conducted as described below.
Blood samples were collected by cardiac puncture and spun through SST vacutainers (Becton Dickinson) for serum separation. […] Serotonin levels were detected by ELISA according to the manufacturer's instructions (Eagle Biosciences). Readings from tissue samples were normalized to total protein content as detected by BCA assay or the 660 nm Protein Assay (Thermo Pierce).
SPF mice were treated with ampicillin, gentamicin, neomycin and vancomycin (AGNV) in their drinking water at 0.5 g/L for 4 days. […] 5-HT drinking water concentration was determined by calculating the same molar concentration as Flx in drinking water. […] Three days after the final gavage, mice were euthanized by CO2 and the small and large intestines were collected for fluorescence in situ hybridization (FISH) as described below and lumenal contents from the small and large intestines were harvested for 16S rDNA sequencing. […] Tissues were collected and analysed 3 d after the final gavage. […]

[8] = system: gut microbiota (Clostridia); assay: Fecal 16S rDNA microbiota profiling after oral 5-HT supplementation; assay type: in vivo, mice
Experimental: as §4, §3

CUW_0748 [9] = assay: APP+ uptake in B. thetaiotaomicron expressing CUW_0748; assay type: cell-based
Experimental: as §2

CUW_0748 [10] = assay: [3H]5-HT uptake in B. thetaiotaomicron expressing CUW_0748; assay type: cell-based
Experimental: The vector was transformed into E. coli with selection using 100 ug/ml ampicillin and conjugated into B. theta using the E. coli helper plasmid RK231 with 50 ug/ml kanamycin selection. E. coli was killed using 200 ug/ml gentamicin and transconjugant strains were selected using 5 ug/ml erythromycin. Successful conjugation and gene expression were confirmed by PCR and qPCR for CUW_0748 in DNA and RNA extracted from B. theta clones. T. sanguinis or B. theta were cultured anaerobically as described above and subcultured for 15-17 h to reach the stationary phase. […] For T. sanguinis, all uptake reactions were performed at room temperature. For B. theta, uptake reactions were performed at either room temperature or 37° C. Uptake reactions were terminated by washing in ice cold Kreb-Ringer's buffer. Washed T. sanguinis was trapped through 0.45 um PVDF filters on MultiScreenHTS plates connected to a vacuum manifold (EMD Millipore). For B. theta, washed cells were either trapped through 0.45-μm PVDF filters or lysed by incubating in TE buffer plus triton and lysozyme. Extracted filters or lysed cells were incubated in 4 ml Filter Count scintillation fluid (Perkin Elmer) for 1 hour at room temp, and radioactivity was measured using a liquid scintillation counter (Beckman LS6500).

T. sanguinis MOL361 [11] = assay: Turicibacter colonization of antibiotic-treated mice (FISH, 16S rDNA); assay type: in vivo
T. sanguinis [12] = assay: [3H]5-HT uptake assay in T. sanguinis; assay type: cell-based, Turicibacter sanguinis; settings: 30 min pre-treatment
[13] = SPF mice gavaged with fluoxetine

**Q.** With `CNCCC(Oc1ccc(C(F)(F)F)cc1)c1ccccc1` (centres unmarked) [fluoxetine] as the molecule, how does the “effect on decrease of 5-HT levels in the media over time” value (T. sanguinis MOL361 [1]) read?
**A.** prevented

**Q.** And the “effect on T. sanguinis growth over long-term culture” value ([2]; 200 uM, Schaedler broth, up to 48 hours)?
**A.** cytostatic effects

**Q.** What about the “effect on APP+ uptake (import) by T. sanguinis” value (“effect on APP+ uptake (import)” below) (T. sanguinis [3]) of the same molecule?
**A.** partially decreased

**Q.** And the “effect on bacterial uptake of norepinephrine ([3H]NE)” value (T. sanguinis [4])?
**A.** no effect

**Q.** What about the “change in T. sanguinis gene expression in the absence of 5-HT” value (T. sanguinis [5]; fluoxetine alone) of the same molecule?
**A.** little change

**Q.** And the “effect on T. sanguinis gene expression compared with 5-HT-treated controls” value (T. sanguinis [5]; fluoxetine with 5-HT, 4 hr)?
**A.** upregulated the expression of genes encoding proteins relevant to efflux transporters, ABC transporters and sporulation

**Q.** And the “Turicibacter in fecal microbiota” value (fecal microbiota; SPF mice gavaged with 10 mg/kg fluoxetine)?
**A.** decreased

**Q.** And the “Clostridiaceae in fecal microbiota” value (fecal microbiota; [13])?
**A.** decreased

**Q.** And the “bacterial alpha diversity of fecal microbiota” value (fecal microbiota; [13])?
**A.** no significant differences

**Q.** And the “serum triglyceride levels compared with mice colonized with vehicle-treated T. sanguinis” value [6]?
**A.** increased

**Q.** Which “effect on APP+ uptake (import)” value (T. sanguinis [3]) does the source give for `NC[C@H](O)c1ccc(O)c(O)c1` [norepinephrine] here?
**A.** modest, but not statistically significant, effect

**Q.** Which “increase of fecal 5-HT levels relative to vehicle-treated controls” value ([7]; SPF mice, 1.5 mg/ml 5-HT in the drinking water for 2 weeks) does the source give for `NCCc1c[nH]c2ccc(O)cc12` [5-HT, 5-hydroxytryptamine] here?
**A.** 642 fold

**Q.** What about the “elevation of fecal 5-HT levels over vehicle” value ([7]; antibiotic-treated mice, 5-HT 24 μg/ml in drinking water) of the same molecule?
**A.** approximately 6 fold

**Q.** And the “combined relative abundance of Clostridiales, Clostridiaceae, Ruminococcus and Ruminococcaceae (mean±S.E.M.)” value ([8]; 5-HT-supplemented mice, fecal microbiota)?
**A.** 86.2±5.8%

**Q.** What about the “increase of combined relative abundance of Clostridiales, Clostridiaceae, Ruminococcus and Ruminococcaceae” value ([8]; SPF mice, 1.5 mg/ml 5-HT in drinking water 2 weeks, vs SPF mice) of the same molecule?
**A.** 8.4 fold

**Q.** And the “effect on species of Clostridia in fecal microbiota” value ([8]; oral 5-HT supplementation, SPF mice)?
**A.** substantially enriched

**Q.** And the “T. sanguinis survival/viability after short-term (acute) exposure” value ([2]; 4 h exposure, 200 μM)?
**A.** not affected

**Q.** And the “effect on APP+ uptake (import)” value (T. sanguinis [3])?
**A.** partially decreased

**Q.** What about the “effect on APP+ uptake conferred by CUW_0748” value (CUW_0748 [9]) of the same molecule?
**A.** inhibited

**Q.** What about the “effect on 1 μM [3H]5-HT uptake conferred by CUW_0748” value (CUW_0748 [10]) of the same molecule?
**A.** inhibited

**Q.** And the “effect on T. sanguinis gene expression pathways vs vehicle” value (T. sanguinis [5]; 200 uM 5-HT, 4 hr)?
**A.** downregulated the expression of genes that clustered into pathways for cell differentiation, morphogenesis and sporulation

**Q.** And the “number of bacterial genes with significantly altered expression” value (T. sanguinis [5]; 4 hr exposure, 200 uM, vs vehicle)?
**A.** 71 genes

**Q.** And the “differentially expressed genes (q<0.05) downregulated relative to vehicle” value (T. sanguinis [5]; T. sanguinis treated with 5-HT)?
**A.** 54 genes

**Q.** And the “T. sanguinis levels/colonization in the small intestine” value (T. sanguinis MOL361 [11]; antibiotic-treated SPF mice, bacterial pre-treatment plus same treatment in drinking water)?
**A.** detectable T. sanguinis colonization

**Q.** What about the “T. sanguinis competitive colonization, bacterial pre-treatment only” value (T. sanguinis MOL361 [11]; antibiotic-treated mice, no supplementation in drinking water) of the same molecule?
**A.** promoted its competitive colonization

**Q.** With `COc1cc2c(cc1OC)C1CC(=O)C(CC(C)C)CN1CC2` (centres unmarked) [tetrabenazine] as the molecule, how does the “effect on [3H]5-HT uptake by T. sanguinis” value (T. sanguinis [12]) read?
**A.** not observed
